Several values for one entry are separate records, joined by “and”; a condition that tells them apart may be missing. Identical values can stand only once. Entries after “also recorded” stand apart in the source; their conditions may differ.
Assays:
GFAP = test: IHC of GFAP (astrocyte activation) in 5xFAD brain sections; type: in vivo, mouse; conditions: for Figure 9E, IHC signal: individual animals
Text: (§1) Following the behavioral experiments, we assessed brain pathologies associated with AD present in the 5xFAD mice ([37]). Therefore, 5 days following the last behavioral experiment, and 1 month after the start of YB-537 consumption, mice were sacrificed, and coronal brain sections were used for IHC. Since the CA1 region of the hippocampus is affected during AD pathogenesis ([37]), and this brain region is involved in the behavioral paradigms used here, we acquired images of CA1. This was done with an Olympus IX83 confocal microscope using the same settings, antibodies, and exposures in all mice. Images were analyzed using Imaris (Bitplane; see methods). For each mouse, 3 coronal sections were used per antibody. In each section, the same region of CA1 was acquired, using the same image frame size and resolution, at all possible depths of the section — using a Z-stack of the whole section — to allow measurement of the fluorescent antibody marker volume, which was normalized to the brain volume from which it was taken. First, we measured oxidative stress, as indicated by 4-HNE ([38]) (Abcam, ab48506).
(§2) Perfused and fixed brain slices were blocked with 10% normal donkey serum (DNS) and 0.2% triton (Sigma-Aldrich) in PBS. Antibodies, including 4-HNE (AbCam, ab48506), Iba1 (AbCam, ab5076), AT-8 (Thermo, MN1020), Amyloid β (AbCam, ab201060), diluted in PBS with 10% DNS, were incubated at 4°C overnight. Secondary antibodies including donkey-anti-goat Alexa Fluor 568 (AbCam, ab175704), donkey-anti-mouse Cy 5 (Jackson Immuno Research, 715-175-151), and donkey-anti-rabbit DyLight 488 (AbCam, ab98488) all diluted 1:500 in PBS with 1% BSA, were applied to the slices at RT for 2 hours the next day. Slices were mounted onto glass slides using DAPI containing Vectashield (H-1200). Images were taken using a confocal microscope (Olympus IX83). Three slices were used per mouse per antibody. Tiling images of the dorsal CA1 and cortex (Bregma: –1.58mm to –2.30mm) were taken using ×20 objective, acquiring a Z-stack of the whole section. Analysis of the images was done blind by an experimenter unaware of the experimental conditions or details, using Imaris (Bitplane) software. A surface reconstruction module was used to extract the data as volumes of the used markers (4-HNE, phospho-tau, amyloid β, GFAP, and Iba1). Marker volume and intensity were normalized to the corresponding brain volume. The normalized value was averaged for each triplicate and presented here. […]
(§3) Brains were then briefly removed and placed in chilled, 4% PFA for 48 h, f oll owe d by immersion in 30% sucrose in 0.1 M PBS for a furt her 48 h. Bra i ns wer e t h e n stored at -80°C, until t he y were sliced into 40µm coronal sections usinga Lei ca CM 1950cryostat. Sli ces were then washed x3 in PBS and bl oc ke d for 1 h at RT using 10% normal donkey serum (DNS) and 0.2% triton (Sigma-Aldrich) in PBS. Antibodies, including 4- HNE (1:500, AbCam, ab48506), Iba1 (1:2,000, AbCam, ab5076), GFAP (Abcam, ab53554), phospho- tau (1:1,000, Thermo, MN1020) and amyloid β (1:1,000, AbCam, ab201060) diluted in PBS with 10% DNS were incubated at 4°C overnight. The next day, the slices were washed x3 times in PBS, and secondary antibodies including donkey anti goat A l e x a Fluor 568 (AbCam, ab175704), donkey anti-mouse Cy 5 (Jackson Immuno Research, 715- 175- 151) and donkey anti-rabbit DyLight 488 (AbCam, ab98488) all diluted 1:500 in PBS with 1% BSA, were applied to the slices at RT for 2 h. Following the incubation, the slices were washed x3 times in PBS, mounted onto gl ass slides, were uniformly covered in DAPI containing Vectashield (H-1200) and coverslips were a dde d. […]

[1] = Solubility in water / saline; type: physicochemical
Iba1 = test: IHC of Iba1 (microglia activation) in 5xFAD brain sections; type: in vivo, mouse; conditions: for Iba1 normalized volume (individual mice): CA1, 5xFAD 1 month; for Figure 9D, IHC signal: individual animals; for Iba1 vs vehicle: cortex, 5xFAD 1 month
Text: as §1, §2, §3

## Cc1ccc(-c2cn3cccc(C)c3n2)cc1S(=O)(=O)N1CCNCC1 [YB-537]
GFAP; CA1, 5xFAD 1 month, Females
  GFAP normalized volume (individual mice): 0.0219 and 0.0268 and 0.0382 and 0.0442 and 0.0260 and 0.0233 and 0.0143
  GFAP vs vehicle: unchanged
GFAP; CA1, 5xFAD 1 month, Males
  GFAP normalized volume (individual mice): 0.0303 and 0.0430 and 0.0365 and 0.0251 and 0.0258 and 0.0274 and 0.0223 and 0.0292 and 0.0263
  GFAP vs vehicle: unchanged
GFAP; CA1, 5xFAD 1 month, Males + Females
  GFAP normalized volume (individual mice): 0.0303 and 0.0430 and 0.0365 and 0.0251 and 0.0258 and 0.0442 and 0.0260 and 0.0233 and 0.0143 and 0.0219 and 0.0268 and 0.0382 and 0.0274 and 0.0223 and 0.0292 and 0.0263
GFAP; CA1, 5xFAD 1 month, total population
  GFAP vs vehicle: unchanged
GFAP; Cortex
  Figure 9E, IHC signal: 0.0026 and 0.0035 and 0.0044 and 0.0272 and 0.0046 and 0.0194 and 0.0258 and 0.0029 and 0.0033
GFAP; Hippocampus
  Figure 9E, IHC signal: 0.0259 and 0.0223 and 0.0094 and 0.0129 and 0.0279 and 0.0329 and 0.0343 and 0.0281 and 0.0220
GFAP; cortex, 5xFAD 1 month, females
  GFAP vs vehicle: not significantly reduced
GFAP; cortex, 5xFAD 1 month, males
  GFAP vs vehicle: significantly reduced
GFAP; cortex, 5xFAD 1 month, total population
  GFAP vs vehicle: significantly reduced
[1]
  solubility in water: complete solution; also recorded: water soluble
[1]; PK formulations 2 and 10 mg/ml, HCl salt
  solubility in saline vehicle: fully dissolved
Iba1; Females
  Iba1 normalized volume (individual mice): 0.0305 and 0.0266 and 0.0346 and 0.0314 and 0.0200 and 0.0191 and 0.0158
Iba1; Males
  Iba1 normalized volume (individual mice): 0.0473 and 0.0384 and 0.0542 and 0.0369 and 0.0352 and 0.0318 and 0.0209 and 0.0414 and 0.0362
Iba1; Males + Females
  Iba1 normalized volume (individual mice): 0.0473 and 0.0384 and 0.0542 and 0.0369 and 0.0352 and 0.0314 and 0.0200 and 0.0191 and 0.0158 and 0.0305 and 0.0266 and 0.0346 and 0.0318 and 0.0209 and 0.0414 and 0.0362
Iba1; Cortex
  Figure 9D, IHC signal: 0.0209 and 0.0186 and 0.0218 and 0.0206 and 0.0305 and 0.0198 and 0.0227
Iba1; Hippocampus
  Figure 9D, IHC signal: 0.0213 and 0.0206 and 0.0202 and 0.0175 and 0.0174 and 0.0220 and 0.0296 and 0.0197
Iba1; females
  Iba1 vs vehicle: significantly reduced
Iba1; males
  Iba1 vs vehicle: insignificantly reduced
Iba1; total population
  Iba1 vs vehicle: significantly reduced
